Reference: patent US20210292807A1, “METHOD FOR TESTING ANTIMICROBIAL SUSCEPTIBILITY” (priority 2017, published 2021)

Test system: Klebsiella isolates
Assay: Acoustic flow cytometry-assisted susceptibility test (FAST), MICFAST and S/NS, Klebsiella isolates
Assay type: cell-based, Klebsiella pneumoniae, Klebsiella oxytoca
Method: A 1 mL aliquot of bacterial suspension was centrifuged, washed and resuspended in 1 mL filtered Hank's Buffered Salt Solution (HBSS; comprising about 0.137 M NaCl, about 5.4 mM KCl, about 0.25 mM Na2HPO4, about 0.1 g Glucose, about 0.44 mM KH2PO4, 1.3 mM CaCl2), 1.0 mM MgSO4, about 1.3 mM CaCl2), 1.0 mM MgSO4, and about 4.2 mM NaHCO3) and diluted in series (e.g., in a 1:10 serial dilution) to a final 1:1000 dilution.
One μL (microliter) of SYTO 9 stain (e.g., ThermoFisher Scientific) working stock solution was added to the final dilution at a final concentration of 5 μM and incubated for 5 minutes before counting bacterial events by acoustic flow cytometer (AFC) (Attune, ThermoFisher, Eugene, Oreg., USA), which was used to prepare a standardised inoculum density for susceptibility testing.
An aliquot of bacterial suspension was added to 50 mL centrifuge tubes (Corning, N.Y.) containing 9 mL of pre-warmed (37° C.) filtered MHB to produce a final density of 5×10^5-1×10^6 bacteria per mL. This suspension was incubated at 37° C. with shaking at 100 RPM for 30 minutes to obtain an actively dividing culture. An aliquot of antibiotic working solution from the previously described dilution series (appropriate to the concentration tested) was then added to each tube before a further 30-minute incubation with shaking, during which time a microbroth dilution (MBD) plate was prepared for overnight incubation at 37° C. as previously described in Clinical and Laboratory Standards Institute (2015) Performance Standards for Antimicrobial Susceptibility Testing: Informational Supplement. CLSI document M100-S25. Clinical and Laboratory Standards Institute, 950, West Valley Road, Suite 2500, Wayne, Pa., 19087, USA.
One millilitre of bacterial suspension from each antibiotic concentration was harvested by centrifugation at 7800×g for 5 minutes, washed and diluted 1:10 in filtered HBSS in a light-impermeable microcentrifuge tube, then stained with SYTO 9 stain at a final concentration of 5 μM, and incubated for 5 min before AFC sampling. Hoechst 33342 dye (NucBlue, Thermo Fisher Scientific, Eugene, Oreg., USA) and a SYTO 9/propidium iodide (PI) combination (Thermo Fisher Scientific) were used in a series of replicate experiments.
The acoustic flow cytometer employed was Attune acoustic flow cytometer (Thermo Fisher Scientific), having installed therein a 488 nm blue laser with a 530/30 nm filter on the photomultiplier tube for measuring fluorescence of cells assayed. Alternatively, the Attune NxT acoustic flow cytometer (Thermo Fisher Scientific) can be employed. AFC was calibrated at the beginning of each acquisition session using fluorescently labelled size calibration beads, in accordance with the manufacturer's instructions (ThermoFisher Scientific). The AFC settings were as follows: Forward Scatter (FSC) voltage 3100, FSC threshold 4×1000 AND, blue laser 1 (BL1—530/30 nm) voltage 1900, BL1 threshold 1×1000 AND, high sensitivity, flow rate 25 μL/minute, and an acquisition volume of 125 μL. Acquisition was halted after either collection of 20,000 events across all gates, or after 3 minutes, with each sample acquired in technical triplicate.
Collected data was exported in the FCS 3.0 file format and analysed in Flow v10.0 (FlowJo LLC, Ashland, Oreg., USA) by a single user, blinded to the MIC results by BMD (MICBMD).
Subsequent to quantitative MICFAST determination, the acoustic flow cytometer data were re-analysed in silico to produce a limited sub-set for qualitative susceptibility determination. The six antibiotic dilutions (0 mg/L, 0.25 mg/L, 1 mg/L, 2 mg/L, 4 mg/L and 16 mg/L) most relevant to qualitative susceptibility assessment were used. In silico analysis was restricted to the first technical triplicate of each recorded sample. Gating strategies remained consistent, with the addition of a gate restricting analysis to only those events recorded in the first 60 seconds of acquisition.

[1] = isolate 3000770, England, NDM-1
[2] = isolate 3040820, England, pAmpC
[3] = isolate ATCC BAA 1705, USA, KPC
[4] = isolate K16, Australia, IMP - 4
[5] = isolate K23, Australia, IMP - 4
[6] = isolate KS1, Sri Lanka, OXA-181
[7] = isolate KS2, Sri Lanka, OXA-181
[8] = isolate KS17, Sri Lanka, OXA-181
[9] = isolate KS23, Sri Lanka, OXA-181

## C[C@@H](O)[C@H]1C(=O)N2C(C(=O)O)=C(S[C@@H]3CN[C@H](C(=O)N(C)C)C3)[C@H](C)[C@H]12 [meropenem]
Isolate 2440606, England
  FAST S/NS: S (S = MIC ≤2 mg/L)
  MICFAST: ≤0.25 mg/L
Isolate 2880622, England
  FAST S/NS: S (S = MIC ≤2 mg/L)
  MICFAST: ≤0.25 mg/L
Isolate 2880654, England, KPC
  FAST S/NS: NS (NS = MIC >2 mg/L)
  MICFAST: 32 mg/L
Isolate 2890369, England
  FAST S/NS: S (S = MIC ≤2 mg/L)
  MICFAST: 0.5 mg/L
Isolate 2980639, England
  FAST S/NS: S (S = MIC ≤2 mg/L)
  MICFAST: 0.5 mg/L
[1]
  FAST S/NS: NS (NS = MIC >2 mg/L)
  MICFAST: 8 mg/L
[2]
  FAST S/NS: S (S = MIC ≤2 mg/L)
  MICFAST: ≤0.25 mg/L
Isolate 3080800, England, KPC
  FAST S/NS: NS (NS = MIC >2 mg/L)
  MICFAST: 32 mg/L
Isolate A1, Norway
  FAST S/NS: S (S = MIC ≤2 mg/L)
  MICFAST: ≤0.25 mg/L
Isolate A2, Norway
  FAST S/NS: S (S = MIC ≤2 mg/L)
  MICFAST: ≤0.25 mg/L
Isolate A3, Norway
  FAST S/NS: S (S = MIC ≤2 mg/L)
  MICFAST: ≤0.25 mg/L
Isolate A4, Norway
  FAST S/NS: S (S = MIC ≤2 mg/L)
  MICFAST: ≤0.25 mg/L
Isolate A7, Norway
  FAST S/NS: S (S = MIC ≤2 mg/L)
  MICFAST: ≤0.25 mg/L
Isolate A13, Norway
  FAST S/NS: S (S = MIC ≤2 mg/L)
  MICFAST: ≤0.25 mg/L
Isolate A15, Norway
  FAST S/NS: S (S = MIC ≤2 mg/L)
  MICFAST: ≤0.25 mg/L
Isolate A16, Norway
  FAST S/NS: S (S = MIC ≤2 mg/L)
  MICFAST: ≤0.25 mg/L
Isolate A20, Norway, NDM-1
  FAST S/NS: NS (NS = MIC >2 mg/L)
  MICFAST: 16 mg/L
Isolate ATCC 700603, USA
  FAST S/NS: S (S = MIC ≤2 mg/L)
  MICFAST: ≤0.25 mg/L
[3]
  FAST S/NS: NS (NS = MIC >2 mg/L)
  MICFAST: 8 mg/L
Isolate ATCC BAA 1706, USA
  FAST S/NS: S (S = MIC ≤2 mg/L)
  MICFAST: ≤0.25 mg/L
Isolate K1, Australia, OXA-181
  FAST S/NS: NS (NS = MIC >2 mg/L)
  MICFAST: 32 mg/L
Isolate K2, Australia, OXA-181
  FAST S/NS: NS (NS = MIC >2 mg/L)
  MICFAST: 32 mg/L
Isolate K8, Australia, NDM-1
  FAST S/NS: NS (NS = MIC >2 mg/L)
  MICFAST: >256 mg/L
Isolate K14, Australia, KPC
  FAST S/NS: NS (NS = MIC >2 mg/L)
[4]
  FAST S/NS: S (S = MIC ≤2 mg/L)
  MICFAST: 2 mg/L
[5]
  FAST S/NS: S (S = MIC ≤2 mg/L)
  MICFAST: 0.5 mg/L
[6]
  FAST S/NS: S (S = MIC ≤2 mg/L)
  MICFAST: 2 mg/L
[7]
  FAST S/NS: NS (NS = MIC >2 mg/L)
  MICFAST: 16 mg/L
[8]
  FAST S/NS: NS (NS = MIC >2 mg/L)
  MICFAST: 64 mg/L
[9]
  FAST S/NS: NS (NS = MIC >2 mg/L)
  MICFAST: 64 mg/L
Isolate N17, Sweden, NDM-1
  FAST S/NS: NS (NS = MIC >2 mg/L)
  MICFAST: 32 mg/L
